Data reported in article PMC10347458 (Leukemia, 2023).
In brackets after ≈: the same amount, converted by molar mass. Like-named read-outs stand apart in the source and are kept apart here.

Experiments:
[1] = tested on: pCRKL; details: chronic myeloid leukemia (CML) patients; cited from earlier work
[2] = tested on: human T-ALL samples; assay: Ex vivo leukemia sensitivity; type: cell-based
[3] = type: in vivo, NSG mice; details: for AUC(0-inf) / CL/F / Cmax / Tmax / half-life / AUC(0-t): NSG, mouse, in vivo, po; for AUC(0-t): AUC0–24hrs
[4] = target: LCK (T316I) in KOPT-K1-R (Homo sapiens, UniProt P06239, T316I); details: 100nM, 3 hrs treatment
Sequence of LCK (T316I) in KOPT-K1-R (P06239 whole entry T316I): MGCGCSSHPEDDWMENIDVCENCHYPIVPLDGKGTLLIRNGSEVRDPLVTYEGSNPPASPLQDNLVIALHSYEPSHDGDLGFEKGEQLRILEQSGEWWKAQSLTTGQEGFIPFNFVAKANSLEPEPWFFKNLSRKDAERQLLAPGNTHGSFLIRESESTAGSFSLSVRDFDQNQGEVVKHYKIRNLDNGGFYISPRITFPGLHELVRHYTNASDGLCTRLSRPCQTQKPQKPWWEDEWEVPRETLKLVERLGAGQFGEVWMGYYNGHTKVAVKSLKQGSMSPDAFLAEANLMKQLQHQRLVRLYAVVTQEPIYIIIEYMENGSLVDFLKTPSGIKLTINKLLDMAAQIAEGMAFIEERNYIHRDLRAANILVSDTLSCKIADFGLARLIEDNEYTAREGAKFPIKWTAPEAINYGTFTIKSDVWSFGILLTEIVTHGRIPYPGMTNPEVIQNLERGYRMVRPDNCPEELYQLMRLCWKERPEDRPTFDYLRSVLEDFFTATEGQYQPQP

[5] = target: pLCK (phosphorylated LCK) (Homo sapiens, UniProt P06239); assay: PD: pLCK; type: in vivo; details: for Median duration of pLCK/LCK <50% (10th-90th percentile): mice (Table 2)
Sequence of pLCK (phosphorylated LCK) (P06239 whole entry): as the sequence (P06239 whole entry T316I) above, with I316T counted along it

[6] = tested on: LCK-activated T-ALL PDX models; assay: In vivo evaluation of ponatinib efficacy in T-ALL PDXs; set-up: species or system NSG mice; details: 30 mg/kg once daily oral, three T-ALL PDX models, blast % in peripheral blood

For Cc1nc(Nc2ncc(C(=O)Nc3c(C)cccc3Cl)s2)cc(N2CCN(CCO)CC2)n1 [dasatinib], the “Time above 50% pCRKL inhibition considered sufficient to elicit a clinical response” value [1] is listed as 12.8 hrs per day, the “Dasatinib sensitivity (LC50 <80nM) observed” value ([2]; adult T-ALL) is listed as 9.1% and the “Dasatinib sensitivity (LC50 <80nM) observed” value ([2]; pediatric T-ALL) is listed as 47.5%. It also gave an AUC(0-inf) ([3]; 20 mg/kg) of 500 ng·h/mL, a CL/F ([3]; 20 mg/kg) of 667 mL/min/kg and a Cmax ([3]; 20 mg/kg) of 102 ng/mL. For the same molecule, the Tmax ([3]; 20 mg/kg) was 1.17 h, the half-life ([3]; 20 mg/kg) was 0.35 h and the AUC(0-inf) ([3]; 40 mg/kg) was 1950 ng·h/mL. The CL/F ([3]; 40 mg/kg) was 341 mL/min/kg, the Cmax ([3]; 40 mg/kg) was 366 ng/mL and the Tmax ([3]; 40 mg/kg) was 1.17 h. It also gave a half-life ([3]; 40 mg/kg) of 0.34 h and an AUC(0-t) ([3]; 40 mg/kg) of 1940 ng·h/mL.

For Cc1ccc(C(=O)Nc2ccc(CN3CCN(C)CC3)c(C(F)(F)F)c2)cc1C#Cc1cnc2cccnn12 [ponatinib], the “LC50 compared with that of dasatinib” value ([2]; 51 samples with both drugs tested, P =0.0038, Wilcoxon matched-pairs signed rank test) was “significantly lower”, the CC50 ([2]; Homo sapiens, read-out: Median LC50) was 0.433 µM and the “Samples classified as sensitive to ponatinib (LC50 cutoff 90nM)” value ([2]; all 52 T-ALL cases (n=17)) was 32.7%. The “Block of LCK phosphorylation” value [4] was “around 50%”, the EC90 ([5]; po, read-out: EC90 (CV%)) was 0.063 µg/mL (≈ 0.118 µM) and the “Median duration of pLCK/LCK <50% (10th-90th percentile)” value ([5]; ponatinib 15 mg/kg oral) was 15 mg/kg 10.5 (0, 24.0) hrs/day. For the same molecule, the “Median duration of pLCK/LCK <50% (10th-90th percentile)” value ([5]; ponatinib 30 mg/kg oral) was 30 mg/kg 14.8 (0, 24.0) hrs/day, the AUC(0-inf) ([3]; 15 mg/kg) was 1530 ng·h/mL and the CL/F ([3]; 15 mg/kg) was 163 mL/min/kg. The Cmax ([3]; 15 mg/kg) was 181 ng/mL, the Tmax ([3]; 15 mg/kg) was 3.04 h and the half-life ([3]; 15 mg/kg) was 1.92 h. For the same molecule, the AUC(0-t) ([3]; 15 mg/kg, ponatinib 15 mg (15 mg/kg) single oral dose, NSG mice, median (5th-95th percentile)) was 1530 ng·h/mL, the AUC(0-inf) ([3]; 30 mg/kg) was 3010 ng·h/mL and the CL/F ([3]; 30 mg/kg) was 166 mL/min/kg. The Cmax ([3]; 30 mg/kg) was 356 ng/mL, the Tmax ([3]; 30 mg/kg) was 3.08 h and the half-life ([3]; 30 mg/kg) was 1.92 h. For the same molecule, the AUC(0-t) ([3]; 30 mg/kg, ponatinib 30 mg (30 mg/kg) single oral dose, NSG mice, median (5th-95th percentile)) was 3000 ng·h/mL, the “AUC0–24hrs” value ([3]; ponatinib 30 mg (30 mg/kg) single oral dose, NSG mice, median (5th-95th percentile)) was 2996.56 (2707.46–3351.17) ng hr/mL and the “Leukemia growth in mice vs vehicle control” value [6] was “significantly inhibited leukemia growth”.
